Assay results from PMC6627486, “Ipomoeassin F Binds Sec61α to Inhibit Protein Translocation” (Journal of the American Chemical Society, 2019).
Where two headings read alike, the source gives them in different places.

Columns and labels:
Format in all cases: cell-based, human
[1] = tested on: CD62L expression in Jurkat T cells; assay: CD62L expression by Jurkat T cells; details: 24 h treatment
Experimental: Jurkat E6.1 (ATCC TIB-152TM) T cells were cultured in RPMI GlutamaxTM (Life Technologies), supplemented with 10% heat-inactivated fetal calf serum (FCS) (Invitrogen) and penicillin/streptomycin (100 U/ml, 100 µg/ml). Cells were treated with Ipomoeassin F or mycolactone for 24 h, then pelleted and stained with FITC-conjugated anti-human CD62L (clone DREG-56 (BioLegend #304804) at 500 ng/ml) during 40 min at 4°C. Fluorescence signals were acquired on an Accuri CD (BD) and analyzed with the […]
(§1) FlowJo X software. […]

[2] = tested on: IL-2 production by Jurkat T cells; assay: Activation-induced IL-2 production by Jurkat T cells; details: 1 h preincubation then 24 h activation
Experimental: Jurkat E6.1 (ATCC TIB-152TM) T cells were cultured in RPMI GlutamaxTM (Life Technologies),
supplemented with 10% heat-inactivated fetal calf serum (FCS) (Invitrogen) and penicillin/streptomycin
(100 U/ml, 100 µg/ml). […]
as §1

WT HEK = assay: Alamar Blue viability, WT HEK293; details: read-out: cell viability IC50
Experimental: AlamarBlue Cytotoxicity Assay […]
HCT116 and HEK293T. Viable cells were counted using an automated cell counter (BioRad TC20) before each experiment. Experiments were performed either in quadruplicate or duplicate sets. First 100µ l of HCT116 or HEK293T cells at a density of 25,000 cells/m l was seeded in black wall, clear bottom, 96-well plates (2500 cells/well) (Viewplate-96 Perkin Elmer). HEK293 FRT Trex cells were seeded in complete medium supplemented to 1 μg/ml Doxycycline to induce expression of Sec61a constructs. Cells were then incubated at 37 °C and 5% CO2 for 24 h. The compounds were dissolved in DMSO to make drug stocks (10 mM). The stock solutions were diluted with the complete DMEM or McCoy’s 5A culture media supplemented with DMSO to make a series of gradient fresh working solutions at equal DMSO percentage immediately prior to each test. Subsequently, the cells were treated with 25 μl of the freshly made gradient in a total volume of 125 μl/well for 72 h. After that, the media were supplemented with 10% of AlamarBlue (resazurin) stock solution. The plate was then incubated at 37 °C and 5% CO2 for another 4 h. Emission of each well at 620 nm was detected by a microplate reader (Perkin Elmer EnSpire) at excitation 580 nm. The percentage of viability compared to the negative control (DMSO -treated cells) was determined. […]

WT HCT116 = assay: Alamar Blue viability, parental HCT116 (96 h); details: read-out: cell viability IC50
Experimental: (§2) AlamarBlue Cytotoxicity Assay
(§3) MDA-MB-231, MCF-10A and HCT116. Viable cells were counted with a hemocytometer immediately before each experiment . Experiments were done in triplicate. First, 100 μL of MDA-MB-231 cells or MCF-10A cells at the density of 50,000 cells/mL was seeded in a 96-well plate (5,000 cells/well) and then incubated at 37 °C and 5% CO2 for 24 h. The compounds were dissolved in DMSO (dimethyl sulfoxide) to make drug stocks (10 mM). The stock solutions were diluted with the complete DMEM high glucose culture medium to make a series of gradient fresh working solutions right before each test. Subsequently, the cells were treated with 100 μL of the freshly made gradient working solution in a total volume of 200 μL/well for 72 h. After that, the media were discarded and 200 μL of the fresh complete medium containing 10% of AlamarBlue (resazurin) stock solution was added to each well. The plate was then incubated at 37 °C and 5% CO2 for another 3 h. Emission of each well at 620 nm was detected by a microplate reader (BioTek Synergy H1) at excitation 580 nm. For HCT116 WT and mutant lines, cells were seeded at 1000 cells/ well in complete McCoys medium. […] Cells were treated for 96 h, then viability measured with AlamarBlue, detected using the conditions described but with a BMG Fluostar Optima Microplate Reader. […]
(§4) was determined. […]

HCT R66K = assay: Alamar Blue viability, HCT116 Sec61α R66K (96 h)
Experimental: as §2, §3, §4

HepG2 cells = assay: Pulse-chase analysis of protein secretion in HepG2 cells; details: for secretory proteins in cell media: HepG2, 100 nM Ipom-F or 42 nM mycolactone 13.5 h, 100 nM bortezomib 2 h
Experimental: Pulse‐Chase Analysis of Protein Secretion in HepG2 Cells
The secretion assay was performed using a pulse–chase approach as described previously.20 HepG2 cells were treated with DMSO, 100 nM compound 8, 100 nM Ipom-F or […] mycolactone for 13.5 h before initiating the experiment, whereas pre-treatment with bortezomib 100 nM (Stratech) or 2.5 μg/ml brefeldin A were performed for 2 h and 1 h, respectively. Cells were starved in Met‐ and Cys‐free DMEM (Invitrogen) for 20 min at 37°C. Labeling was initiated by addition of fresh starvation medium containing […] [35S]Met and [35S]Cys protein labeling mix (Perkin Elmer; specific activity >1,000 Ci/mmol) for 15 min. After washing with PBS, cells were incubated in serum‐free DMEM supplemented with excess unlabeled L‐Met and L‐Cys (2 mM final concentration) for 2 h. The compounds were included throughout the starvation, pulse and chase. Secreted proteins in the media were recovered by precipitation with 13% trichloroacetic acid, washed in acetone and dissolved in 2x sample buffer. Cells were solubilized with Triton X‐100 lysis buffer (20 mM Tris, pH 7.5, 150 mM NaCl, 1% TX-100, 1 mM EDTA, 1 mM EGTA) supplemented with protease inhibitor cocktail and phenylmethylsulfonyl fluoride. Equal amounts

Row | SMILES | IC50 ([1]; Homo sapiens) [nM] | IC50 ([2]; Homo sapiens) [nM] | IC50 (WT HEK; Homo sapiens, HEK293, 72 h) [nM] | IC50 (WT HCT116; Homo sapiens, HCT-116, WT HCT116, 96 h) [nM] | IC50 (HCT R66K; Homo sapiens, HCT-116, read-out: cell viability IC50) [nM] | global protein synthesis (total radiolabeled proteins) (HepG2 cells; HepG2, 100 nM, 13.5 h) | secretory proteins in cell media (HepG2 cells) | IC50 [1] [nM] | IC50 [2] [nM] | IC50 (WT HEK; 72 h) [nM] | IC50 (WT HCT116; WT HCT116, 96 h) [nM] | IC50 (HCT R66K; read-out: cell viability IC50) [nM]
1 | C/C=C(\C)C(=O)O[C@@H]1[C@@H](O)[C@@H]2O[C@H]3[C@H](O[C@@H](CCCCC)CCCCCCC(=O)CCC(=O)OC[C@@H](O2)[C@H]1OC(=O)/C=C/c1ccccc1)O[C@H](C)[C@H](OC(C)=O)[C@@H]3O [ipomoeassin F] | 6.3 | 9.9 | 9.6 ± 1 | 40 ± 4 | 131 ± 15 | did not inhibit global protein synthesis | substantial reduction | – | – | – | – | –
2 | CC(=C\C=C\C(C)=C\[C@H](O)[C@@H](O)C[C@H](C)O)/C=C(C)/C=C/C(=O)O[C@H]1CCCC(=O)O[C@@H]([C@@H](C)C/C(C)=C/[C@@H](C)[C@H](O)C[C@@H](C)O)C/C=C(\C)C[C@@H]1C [mycolactone, reference compound] | – | – | – | – | – | – | substantial reduction | 6.3 | 6 | 23.6 ± 0.6 | 1.9 ± 0.6 | > 330
